Like-named read-outs stand apart in the source and are kept apart here.
Experiments:
CHK1 = biological target: T1, CHK1 (Homo sapiens, UniProt O14757); test: Dundee kinase screen re-test (standard format and 4 hour pre-incubation); format: biochemical; settings: CHK1, 0.5µM
T1 sequence (O14757 1-476): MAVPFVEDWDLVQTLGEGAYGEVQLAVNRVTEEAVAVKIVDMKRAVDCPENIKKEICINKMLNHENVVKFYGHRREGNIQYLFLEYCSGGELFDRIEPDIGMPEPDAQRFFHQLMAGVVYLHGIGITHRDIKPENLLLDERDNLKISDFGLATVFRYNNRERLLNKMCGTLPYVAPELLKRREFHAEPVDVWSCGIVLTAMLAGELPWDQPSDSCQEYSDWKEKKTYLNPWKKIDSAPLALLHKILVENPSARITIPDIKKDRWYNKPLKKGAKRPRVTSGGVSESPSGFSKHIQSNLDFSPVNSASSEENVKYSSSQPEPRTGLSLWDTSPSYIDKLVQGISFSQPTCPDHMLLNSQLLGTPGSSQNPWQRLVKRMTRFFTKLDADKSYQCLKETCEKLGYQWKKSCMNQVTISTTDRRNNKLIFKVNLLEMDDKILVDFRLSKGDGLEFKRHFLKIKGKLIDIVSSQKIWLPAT
Method: (§1) Prior to determining its cellular activity, we carried out a screen to assess its selectivity against a panel of 131 protein kinases under conditions that would not distinguish between a reversible or irreversible mode of action. […] These 13 kinases and 29 additional kinases, selected for their known sensitivity to other inhibitors within the purine series, were then tested in a modified screening format in which the assay was repeated following a 4-hr pre-incubation (Table S3B). […] However, conformational flexibility around the active site may promote such an interaction with a residue from another part of the structure ([Martin et al., 2012]).
(§2) Table S3, Related to Figure 4. NCL-0006300 protein kinase selectivity. […]
(§3) Dundee protein kinase screen (Bain et al., 2007). […]
(§4) (B) Selected kinases were re-tested in the Dundee kinase screen against NU6300 at a single concentration of 0.5 µM both in the standard assay format and following a 4 hour pre-incubation in the presence of NU6300. Kinases which have very low activity after the 4 hour incubation so that results might not be wholly reliable are boxed in salmon. Kinases where the activity after a 4 hour pre-incubation is < 50% that in the standard assay format are highlighted in red.

CDK2-Cyclin A = CDK2-Cyclin A (Homo sapiens, UniProt P24941); test: as above; format: biochemical; settings: for remaining activity at 0.5 µM: CDK2/cyclin A
Method: as §1, §2, §3, §4

[1] = test system: phosphorylation of Rb at Thr821 in SKUT-1B cells; test: Inhibition of Rb phosphorylation in cells (western blot); format: cell-based; settings: Homo sapiens, Skut1B, 1 hr exposure
Method: The cellular potency of NU6300 was examined by measuring the inhibition of Rb phosphorylation following exposure of SKUT-1B cells to the inhibitor for 1 hr. Pre-incubation with 50 μM NU6300 inhibited phosphorylation of Rb at […], a known CDK2 phosphorylation site, by 43%. […] This difference just reached statistical significance (p = 0.04). […] Representative of three different experiments. […] Protein expression levels of phospho-Rb ([…]) were normalized to the levels of total Rb in respective samples using densitometry. Relative protein expression levels are presented as percentage of inhibition of phosphorylation of Rb ([…]) compared with the control cells for each time point. Error bars represent the mean value and SD from three independent experiments. Statistical analysis was performed using the unpaired Student's t test, one-tailed. Western blot analysis was carried out as described previously ([Thomas et al., 2011]) using rabbit anti-[…] phospho-Rb antibody (Invitrogen) or mouse antihuman Rb antibody (BD Pharmingen) to detect phosphorylated and total retinoblastoma protein, respectively. Sample preparation is described in Supplemental Experimental Procedures. page 14: formate) before cryo-coolling. Data processing was carried out using programs of the CCP4 suite (CCP4, 1994). The structure of NU6300 bound to CDK2/cyclin A was solved by molecular replacement using Phaser (McCoy et al., 2007), using as the search model a high-resolution structure of a recruitment peptide bound to CDK2/cyclin A ((Cheng et al., 2006) PDB code 2CCH). A single clear solution was found with an inhibitor bound to each of the two copies of the binary complex in the asymmetric unit. This solution was then subjected to rigid body refinement in REFMAC (Murshudov et al., 1997), to reveal unambiguous electron density in the CDK2 ATP-binding site, consistent with the expected shape of the inhibitor. A model of NU6300 was created using Coot (Emsley et al., 2010). The inhibitor atoms were kept in all subsequent models during refinement carried out by additional rounds of manual rebuilding in Coot and restrained refinement in REFMAC5, including TLS refinement. Towards the end of refinement, waters were added using the Coot water picking utility and manually verified. Western blotting SKUT-1B cells (ATCC, Manassas, USA) were grown in MEM medium supplemented with non-essential amino acids, L-Glutamine, sodium pyruvate and 10% (v/v) foetal calf serum (Sigma, UK). […] Cells were harvested at different time points after the washout and lysed by adding PhosphoSafe extraction reagent (Merck, UK) containing protease inhibitor cocktail (Roche, UK) at the manufacturer's recommended dilution. The harvested cell suspension was placed in an eppendorf tube on ice, centrifuged at 13,000x g for 5 min, and the supernatant (cell lysate) removed for analysis. Subsequent western blot analysis was carried out as described in (Thomas et al., 2011) using rabbit anti-[…] phospho-Rb antibody (Invitrogen, Paisley, UK Cat No. 44-[…]) or mouse anti-human Rb antibody (BD Pharmingen, Oxford, UK Cat No. 554136) to detect phosphorylated and total retinoblastoma protein, respectively.

[2] = 4hr RT preincubation, read-out: %Remaining activity at 0.5µM NU6300 - 4hr RT preincubation
[3] = usual format, read-out: %Remaining activity at 0.5µM NU6300 - Usual assay format

**Q.** With `C=CS(=O)(=O)c1ccc(Nc2nc(OCC3CCCCC3)c3nc[nH]c3n2)cc1` [NU6300, 6-(cyclohexylmethoxy)-N-(4-(vinylsulfonyl)phenyl)-9H-purin-2-amine] as the compound, how does the remaining activity at 0.5 µM (CHK1; [2]) read?
**A.** The remaining activity at 0.5 µM was 42%.

**Q.** What about the remaining activity at 0.5 µM (CHK1; [3]) of the same compound?
**A.** The remaining activity at 0.5 µM was 72%.

**Q.** What about the remaining activity at 0.5 µM (CDK2-Cyclin A; [2]) of the same compound?
**A.** The remaining activity at 0.5 µM was 9%.

**Q.** What about the remaining activity at 0.5 µM (CDK2-Cyclin A; [3]) of the same compound?
**A.** The remaining activity at 0.5 µM was 26%.

**Q.** What about the “additional loss of activity after pre-incubation” value (CDK2-Cyclin A; CDK2, 4-hr pre-incubation vs usual format, 0.5 µM) of the same compound?
**A.** Its value is over 50%.

**Q.** And the inhibition at 50 µM ([1]; before washout, read-out: inhibition of phosphorylation of Rb at Thr821)?
**A.** Its inhibition at 50 µM is 43%.

**Q.** What about the inhibition at 50 µM ([1]; then 1-hr washout in drug-free media, read-out: inhibition of phosphorylation of Rb at Thr821 after washout) of the same compound?
**A.** Its inhibition at 50 µM is 33%.
